Measured values taken from patent publication US9447156B2, “Methods and compositions for inhibiting neddylation of proteins” (St. Jude Children's Research Hospital, priority 2011, dated 2016).
Where two headings read alike, the source gives them in different places. Positions of bridges follow the written chain, without caps; N, C: chain ends. Non-standard residues stand in square brackets, D forms with d. Residues, ends and D or L forms follow the SMILES beside them. No end group written: not given here. *: point of attachment. S5 = C=CCCC[C@](C)(N)C(=O)O; For = O=C*

How the values were obtained:
hDcn1^P = target: T1, hDcn1^P (Homo sapiens, UniProt Q96GG9); experiment: ITC binding of Ubc12/Ube2f peptides to hDcn1^P; details: for ΔH: change in enthalpy; for ΔS: change in entropy
T1 construct: hDcn1^P corresponds to residues 62 to the C-terminal residue 259 of hDcn1; GST (cleaved yes); made in house; host or cells: E. coli BL21(DE3)Gold
T1 sequence (Q96GG9 62-259): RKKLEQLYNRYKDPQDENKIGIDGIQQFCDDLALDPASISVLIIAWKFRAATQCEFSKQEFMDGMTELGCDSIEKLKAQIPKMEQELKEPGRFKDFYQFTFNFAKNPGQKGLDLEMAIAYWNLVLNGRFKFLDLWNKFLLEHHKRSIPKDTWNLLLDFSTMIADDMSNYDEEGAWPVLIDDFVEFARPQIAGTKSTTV
Experimental: (§1) Protein samples were buffer matched by desalting over a NAP-5 column (GE Healthcare) into 50 mM Hepes, 125 mM NaCl, 1 mM BME, pH 7.0 (ITC buffer). Peptides were dissolved by weight to a final concentration of 10 mM in ITC buffer and diluted further in ITC buffer as required for the experiments. Measurements were performed using a MicroCal ITC200. hDcn1^P or yDcn1^P were placed into the sample cell at a final concentration of 400 μM at 18° C. The peptide ligands (4 mM) were constantly injected (1.5 μl). The interval time between each injection was 3 minutes and the duration of each injection was 3 seconds. For titrations involving hE1 and yE1, proteins were placed into the sample cell at a final concentration of 25 μM at 22° C. Peptide ligands (250 μM) were constantly injected (2.5 μl). The interval time between each injection was three minutes and the duration of each injection was 5 seconds. For hCul1^ctd-Rbx1:hDcn1^P binding, proteins were buffer matched by desalting over a NAP-5 column in 25 mM Tris, 0.1 M NaCl, 1 mM BME, pH 7.6. hCul1^ctd-Rbx1 was placed into the sample cell at a final concentration of 55 μM at 22° C. hDcn1^P (550 μM) was constantly injected (2.5 μl). The interval time between each injection was 3 minutes and the duration of each injection was 5 seconds. Obtained spectra were evaluated using Origin (V 7.0) to determine heats of binding and Kd values.
The affinity of various peptides for hDcn1^P, hDcn2^P, hDcn3^P, hDcn4^P, and hDcn5^P was tested using isothermal titration calorimetry as described in Example 1 and is provided in Table 29.

[1] = target: T2, hE1 for Nedd8 (APPBP1-UBA3) (Homo sapiens, UniProt Q8TBC4); experiment: ITC binding of Ubc12 peptides to hE1; details: for Kd / ΔH / ΔS: ITC; for Kd: protein hE1, titrant Ubc12 peptide; for ΔH / ΔS: protein hE1; for ΔH: change in enthalpy; for ΔS: change in entropy
T2 construct: made in house; host or cells: E. coli
T2 sequence (Q8TBC4 22-463 limits assumed): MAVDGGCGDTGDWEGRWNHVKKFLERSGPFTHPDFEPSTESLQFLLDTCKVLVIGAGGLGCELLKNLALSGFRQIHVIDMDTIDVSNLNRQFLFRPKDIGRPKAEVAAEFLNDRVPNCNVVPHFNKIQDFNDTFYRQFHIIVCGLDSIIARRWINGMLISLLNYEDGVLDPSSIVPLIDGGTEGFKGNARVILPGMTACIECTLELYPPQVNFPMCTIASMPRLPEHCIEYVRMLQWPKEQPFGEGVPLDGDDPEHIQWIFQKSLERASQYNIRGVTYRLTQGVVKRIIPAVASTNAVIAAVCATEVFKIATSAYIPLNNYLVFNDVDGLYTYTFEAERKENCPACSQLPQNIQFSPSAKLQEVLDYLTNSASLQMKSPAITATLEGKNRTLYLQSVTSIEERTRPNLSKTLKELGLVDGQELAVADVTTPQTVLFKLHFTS
T2 sequence (Q13564 1-534 partner): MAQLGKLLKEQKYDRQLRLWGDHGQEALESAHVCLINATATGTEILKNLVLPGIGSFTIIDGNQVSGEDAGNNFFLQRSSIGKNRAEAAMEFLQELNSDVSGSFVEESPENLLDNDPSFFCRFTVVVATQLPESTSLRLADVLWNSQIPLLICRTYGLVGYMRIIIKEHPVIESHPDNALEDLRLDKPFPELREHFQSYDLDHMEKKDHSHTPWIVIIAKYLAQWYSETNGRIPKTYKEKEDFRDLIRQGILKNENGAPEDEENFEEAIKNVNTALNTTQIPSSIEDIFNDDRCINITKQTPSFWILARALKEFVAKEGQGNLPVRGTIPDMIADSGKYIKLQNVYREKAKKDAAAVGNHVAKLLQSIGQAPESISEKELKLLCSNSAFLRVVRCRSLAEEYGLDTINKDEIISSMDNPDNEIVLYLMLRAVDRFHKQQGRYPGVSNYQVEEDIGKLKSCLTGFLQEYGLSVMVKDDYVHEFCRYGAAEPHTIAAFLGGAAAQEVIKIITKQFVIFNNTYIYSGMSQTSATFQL
Experimental: as §1

yDcn1^P = target: T3, yDcn1^P (Saccharomyces cerevisiae, UniProt Q12395); experiment: ITC binding of Ubc12 peptides to yDcn1^P; design: species or system S. cerevisiae; details: ITC, protein yDcn1^P
T3 construct: made in house; host or cells: E. coli
T3 sequence (Q12395 70-269): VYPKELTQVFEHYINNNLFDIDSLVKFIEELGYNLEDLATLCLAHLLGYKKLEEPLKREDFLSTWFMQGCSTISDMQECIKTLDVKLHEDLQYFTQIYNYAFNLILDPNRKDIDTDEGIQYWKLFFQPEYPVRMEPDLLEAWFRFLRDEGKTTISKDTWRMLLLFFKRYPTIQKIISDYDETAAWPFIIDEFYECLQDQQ
Experimental: as §1, with “Measurements were performed using a MicroCal ITC200. hDcn1^P or yDcn1^P were placed into the sample cell at a final concentration of 400 μM at 18° C.” left out, “[…])” for “hDcn1^P (550 μM)”, “seconds.” for “seconds. Obtained spectra were evaluated using Origin (V 7.0) to determine heats of binding and Kd values.”

[2] = Table 29, peptides with amidated carboxy-terminus, read-out: Binding Kd for hDcn1^P
[3] = protein hDcn1^P, titrant Ubc12 peptide, read-out: Kd

Row | Molecule | ΔH (hDcn1^P; protein hDcn1^P) | ΔS (hDcn1^P; protein hDcn1^P) | Kd [1] | ΔH [1] | ΔS [1] | also measured
1 | CC[C@H](C)[C@H](NC(=O)[C@H](CCSC)NC(C)=O)C(=O)N[C@@H](CCCCN)C(=O)N[C@@H](CC(C)C)C(=O)N[C@@]1(C)CCCC=CCCC[C@@](C)(C(=O)N[C@@H](CCC(N)=O)C(=O)N[C@@H](CCCCN)C(=O)N[C@@H](CCCCN)C(N)=O)NC(=O)[C@H](CCCCN)NC(=O)[C@H](CC(C)C)NC(=O)[C@H](CO)NC1=O [Acetyl-hUbc12^1-12 (5:9Staple)] (Ac-MIKL[S5]SLK[S5]QKK-NH2; staple 5-9) | −3,386 cal/mol | 19.3 cal/mol/deg | – | – | – | –
2 | CC[C@H](C)[C@H](NC(=O)[C@H](CCSC)NC(C)=O)C(=O)N[C@@H](CCCCN)C(=O)N[C@@H](CC(C)C)C(=O)N[C@@H](Cc1ccccc1)C(=O)N[C@@H](CO)C(=O)N[C@@H](CC(C)C)C(=O)N[C@@H](CCCCN)C(=O)N[C@@H](CCC(N)=O)C(=O)N[C@@H](CCC(N)=O)C(=O)N[C@@H](CCCCN)C(=O)N[C@@H](CCCCN)C(N)=O [Acetyl-hUbc12^1-12] | −4,992 cal/mol | 8.79 cal/mol/deg | 630 nM | −11,490 cal/mol | −11.0 cal/mol/deg | –
3 | Ac-MIKLFSLKQQKKEEESAGGTKGSSKK-NH2 [Acetyl-hUbc12^1-26] | −6,107 cal/mol | 5.84 cal/mol/deg | 943 nM | −9,425 cal/mol | −4.79 cal/mol/deg | –
4 | CCCC[C@H](N)C(=O)N[C@H](C(=O)N[C@@H](CCCCN)C(=O)N[C@@H](CC(C)C)C(=O)N[C@@H](Cc1ccccc1)C(=O)N[C@@H](CO)C(=O)N[C@@H](CC(C)C)C(=O)N[C@@H](CCCCN)C(=O)N[C@@H](CCC(N)=O)C(=O)N[C@@H](CCC(N)=O)C(=O)N[C@@H](CCCCN)C(=O)N[C@@H](CCCCN)C(N)=O)[C@@H](C)CC [hUbc12^1−12 (NorLeu)] | – | – | – | – | – | Kd (hDcn1^P; [2]): > 400000 nM
5 | AcetylhUbc12^Ac1-12(5,9 Staple): Acetylated hUbc12 1-12 with Phe5 and Gln9 replaced with (S)-2-(4'-pentenyl)alanine, side-chains covalently linked (Ac-MIKL[S5]SLK[S5]QKK-NH2; staple 5-9) | – | – | – | – | – | binding to E1 ([1]; data not shown): no longer binds E1
6 | Ac-IKLFSLKQQKKEEESAGGTKGSSKK-NH2 [Acetyl-hUbc12^2-26] | 1,719 cal/mol | 24.1 cal/mol/deg | 390 nM | −8,899 cal/mol | −1.24 cal/mol/deg | Kd (hDcn1^P; [3]): > 100000 nM
7 | MIKLFSLKQQKKEEESAGGTKGSSKK-NH2 [hUbc12^1−26] | – | – | – | – | – | Kd (hDcn1^P; [2]): > 200000 nM
8 | Ac-IKLFSLKQQKKEEESAGGTKGSSKK-NH2 [hUbc12^Ac−2−26] | – | – | – | – | – | Kd (hDcn1^P; [2]): > 150000 nM
9 | CC[C@H](C)[C@H](NC(=O)[C@H](CO)NC(=O)[C@H](CO)NC(=O)[C@H](CO)NC(=O)[C@H](CC(N)=O)NC(=O)[C@H](CCC(=O)O)NC(=O)[C@H](CC(N)=O)NC(=O)[C@H](CCC(=O)O)NC(=O)[C@H](CCCCN)NC(=O)[C@H](CCC(N)=O)NC(=O)[C@H](CCCCN)NC(=O)[C@H](CCCCN)NC(=O)[C@H](CCCCN)NC(=O)[C@H](CCC(N)=O)NC(=O)[C@H](CC(C)C)NC(=O)[C@H](CCC(N)=O)NC(=O)[C@H](CCCNC(=N)N)NC(=O)[C@H](CC(C)C)NC(=O)[C@H](CCCCN)NC(=O)[C@H](CC(C)C)NC(=O)[C@H](CCSC)NC=O)C(=O)N[C@@H](CCC(N)=O)C(=O)N1CCC[C@H]1C(=O)N[C@@H](CC(N)=O)C(N)=O [Formyl-yUbc12^1-24] (For-MLKLRQLQKKKQKENENSSSIQPN-NH2) | – | – | – | – | – | ΔH (yDcn1^P; change in enthalpy): 2,824 cal/mol; ΔS (yDcn1^P; change in entropy): 33.4 cal/mol/deg
10 | H-MIKLFSLKQQKKEEESAGGTKGSSKK-NH2 [hUbc12^1-26] | 1,259 cal/mol | 22.2 cal/mol/deg | 585 nM | −8,881 cal/mol | −1.99 cal/mol/deg | Kd (hDcn1^P; [3]): > 130000 nM
11 | CC[C@H](C)[C@H](NC(=O)[C@H](CCSC)NC=O)C(=O)N[C@@H](CCCCN)C(=O)N[C@@H](CC(C)C)C(=O)N[C@@H](Cc1ccccc1)C(=O)N[C@@H](CO)C(=O)N[C@@H](CC(C)C)C(=O)N[C@@H](CCCCN)C(=O)N[C@@H](CCC(N)=O)C(=O)N[C@@H](CCC(N)=O)C(=O)N[C@@H](CCCCN)C(=O)N[C@@H](CCCCN)C(=O)N[C@@H](CCC(=O)O)C(=O)N[C@@H](CCC(=O)O)C(=O)N[C@@H](CCC(=O)O)C(=O)N[C@@H](CO)C(=O)N[C@@H](C)C(=O)NCC(=O)NCC(=O)N[C@H](C(=O)N[C@@H](CCCCN)C(=O)NCC(=O)N[C@@H](CO)C(=O)N[C@@H](CO)C(=O)N[C@@H](CCCCN)C(=O)N[C@@H](CCCCN)C(N)=O)[C@@H](C)O [Formyl-hUbcU^126] (For-MIKLFSLKQQKKEEESAGGTKGSSKK-NH2) | −4,893 cal/mol | 5.79 cal/mol/deg | – | – | – | –
